Source: the CheMixHub viscosity set

Assay: xn = mol fraction of the nth substance listed

COCCOCCOC + CCCCCCCCCC
viscosity [mPa·s], 101.33 kPa
Conditions | x1 = 0.1008 | x1 = 0.2018 | x1 = 0.3025 | x1 = 0.3984 | x1 = 0.4993 | x1 = 0.6592 | x1 = 0.701 | x1 = 0.7987 | x1 = 0.9013
298.15 K | 0.798 | 0.788 | 0.787 | 0.79 | 0.8 | 0.834 | 0.846 | 0.869 | 0.915
308.15 K | 0.689 | 0.682 | 0.679 | 0.68 | 0.688 | 0.716 | 0.726 | 0.746 | 0.784
318.15 K | 0.597 | 0.59 | 0.589 | 0.589 | 0.597 | 0.618 | 0.627 | 0.643 | 0.674

CCCCCCN + CCOCCO
308.15 K, 101 kPa
Conditions | viscosity [mPa·s]
x2 = 0.1321 | 0.7283
x2 = 0.255 | 0.8766
x2 = 0.3698 | 1.026
x2 = 0.4772 | 1.172
x2 = 0.5779 | 1.305
x2 = 0.6726 | 1.426
x2 = 0.7616 | 1.469
x2 = 0.8456 | 1.457
x2 = 0.9249 | 1.445

CCCC[N+](CCCC)(CCCC)CCCC.F[B-](F)(F)F + CC#N
viscosity [mPa·s], 100 kPa
Conditions | x1 = 0.004121 | x1 = 0.008132 | x1 = 0.01219 | x1 = 0.01614 | x1 = 0.02013 | x1 = 0.0241 | x1 = 0.02789 | x1 = 0.03177 | x1 = 0.03562 | x1 = 0.0394
293.15 K | 0.423 | 0.446 | 0.472 | 0.499 | 0.528 | 0.559 | 0.591 | 0.625 | 0.661 | 0.698
298.15 K | 0.404 | 0.426 | 0.45 | 0.475 | 0.502 | 0.532 | 0.561 | 0.594 | 0.628 | 0.663
303.15 K | 0.385 | 0.406 | 0.429 | 0.453 | 0.48 | 0.507 | 0.536 | 0.567 | 0.599 | 0.633
308.15 K | 0.369 | 0.389 | 0.411 | 0.433 | 0.458 | 0.484 | 0.511 | 0.54 | 0.57 | 0.602
313.15 K | 0.354 | 0.373 | 0.393 | 0.414 | 0.437 | 0.462 | 0.487 | 0.514 | 0.543 | 0.572
318.15 K | 0.34 | 0.358 | 0.377 | 0.397 | 0.418 | 0.441 | 0.464 | 0.489 | 0.516 | 0.544
323.15 K | 0.327 | 0.344 | 0.362 | 0.38 | 0.4 | 0.422 | 0.443 | 0.467 | 0.491 | 0.517
